According to article PMC13538185, “The PSD-95 inhibitor NA-1 is delivered to the brain upon nasal administration with uptake into the olfactory bulb improved by co-administration with the cell-penetrating peptides lowPro and Tat” (Drug Delivery and Translational Research, 2025):

How the values were obtained:
[1] = test system: NMRI mice; assay: Biodistribution after intravenous bolus injection to mice (reference group); details: mice, 3 nmol/g, 1 h
Description: (§1) In an intravenous reference group, NA-1 was administered as a bolus injection (3 nmol/g body weight in 0.9% NaCl) into the tail vein. After 60 min compound circulation, the animals were transcardially perfused with 0.01 M PBS (pH 7.4). The brain, olfactory bulb, heart, lungs, spleen, kidneys, liver, and 2–3 cm of the upper part of duodenum were collected in 2 mL tubes and stored at -70 °C until analysis. […] The homogenate was spun down for 10 min at 14,000 rpm and 4 °C in a Sigma 1–15 K centrifuge (DJB Labcare, Newport Pagnell, England). […] Biodistribution of NA-1 was assessed by measuring the selenium content in tissue digested in HNO3 for 3–5 days at room temperature (50 mg tissue per 0.5 mL HNO3 for heart, lungs, spleen, kidney, and duodenum or 0.2 mL HNO3 for olfactory bulb and 1 mL HNO3 for the remaining brain. The tissue samples were spun down for 5 min at 10,000 rpm in a Sigma 1–15 K centrifuge (DJB Labcare, Newport Pagnell, England) before dilution (1:5–1:32) in 5% methanol with 0.1% trifluoroacetic acid in ultrapure water. The samples were analyzed with ICP-MS as described for transport studies, but with a 20 µL injection volume and a 2 min run time.

[2] = as above; details: mouse, in vivo, iv, 3 nmol/g body weight
Description: as §1

[3] = test system: NMRI mice; details: nasal
[4] = not given; remark: listed apart in the source
[5] = test system: primary porcine olfactory epithelial monolayers; assay: Transport of NA-1 alone or co-administered with cell-penetrating peptides across primary porcine olfactory epithelial monolayers (ICP-MS of selenium); format: in vitro ADME
Description: Oxygen was applied as reaction gas.

[6] = not given; remark: listed apart in the source
[7] = test system: primary porcine olfactory epithelial cells; assay: Cellular metabolic activity (XTT assay); format: cell-based; details: 4 h incubation with 50 or 100 µM peptide in transport medium, 37 °C, N = 3, n = 3
Description: The cellular metabolic activity was assessed on olfactory epithelial cells cultured in a 96-well plate for 48 h using a commercially available sodium 3´-[1-(phenylaminocarbonyl)-3,4-tetrazolium]-bis (4-methoxy-6-nitro) benzene sulfonic acid hydrate (XTT) assay as directed by the manufacturer. […] Cells incubated with transport medium (MEM w/o phenol red, 0.05% BSA, 0.1 U/mL Penicillin, 0.1 µg/mL Streptomycin) without peptides served as live cell controls and wells with transport medium but no cells served as dead cell controls. After peptide incubation, the cells were gently washed twice with transport medium before incubation with 100 µL transport medium and 50 µL XTT labelling mixture (electron-coupling reagent: XTT labelling reagent 1:50) for 1 h at 37 °C with horizontal shaking (90 rpm). Samples (100 µL) from each well were transferred to a new 96-well plate and the absorbance was measured at 466 nm using a SPECTROstar Nano plate reader (BMG Labtech, Ortenberg, Germany). The relative cellular viability was calculated by Eq. 1:1

[8] = test system: primary porcine olfactory epithelial monolayers; details: ALI 20-21 days, apical to basolateral, 0.5 mg/mL in transport medium (MEM, 0.05% BSA), 37 °C, fluorescence read-out, mean (N = 3-4, n = 3)
Description: Transport studies were performed on olfactory epithelial cell monolayers cultured for 20 or 21 days under ALI conditions. […] 50 µL samples were withdrawn at time points 0.5, 1, 1.5, 2, 3, 4, and 24 h into black clear-bottom 96-well plates. The sampling volume was immediately replaced with 37 °C transport medium. […] The experiments with NA-1 and the cell-penetrating peptides were initiated by gently applying 300 µL samples (50 µM NA-1 alone or co-administered with 50 µM Tat, LowPro, or PenShuf) in 37 °C transport buffer to the apical compartment. 75 µL samples were withdrawn at time points 1, 2, 3, and 16 h into glass vials. The sampling volume was immediately replaced with 37 °C transport buffer. NA-1 was labelled with selenomethionine (M^Se) between the Tat and the NR2B9c moiety to facilitate analysis through selenium quantification using inductively coupled plasma mass spectrometry (ICP-MS). For selenium analysis, the samples were subjected to flow injection analysis on a Dionex Ultimate 3000 UPLC (Thermo Fischer Scientific, Germering, Germany) with ICP-MS detection using an Agilent 8800 Triple Quad equipped with a 2.5 mm quartz torch with platinum sampler -and skimmer cones (Agilent Technologies, Santa Clara, CA, USA).

[9] = test system: primary porcine olfactory epithelial monolayers; assay: Transepithelial electrical resistance (TEER) before and after peptide incubation; format: cell-based; details: 100 µM peptide, 3 h incubation, N = 3, n = 2
Description: Thereafter, the cells were equilibrated to RT prior measuring the TEER with a chopstick electrode or in an Endohm-24 cup connected to an Epithelial Volt/Ohm meter (both World Precision Instruments, Sarasota, FL, USA). The measured TEER values were subtracted the resistance across an empty Transwell insert and multiplied with the area of the insert (0.33 cm^2) to obtain the standardized unit Ω⋅cm^2.

[10] = NA-1 alone, 3 nmol/g body weight, 1 h after administration, perfused, ICP-MS of selenium, mean (N = 4-6)

Molecule: CC[C@H](C)[C@H](NC(=O)[C@H](CO)NC(=O)[C@H](CO)NC(=O)[C@H](CC(C)C)NC(=O)[C@H](CCCCN)NC(=O)[C@H](CC[Se]C)NC(=O)[C@@H](CCCNC(=N)N)NC(=O)[C@@H](CCCNC(=N)N)NC(=O)[C@@H](CCCNC(=N)N)NC(=O)[C@@H](CCC(N)=O)NC(=O)[C@@H](CCCNC(=N)N)NC(=O)[C@@H](CCCNC(=N)N)NC(=O)[C@@H](CCCCN)NC(=O)[C@@H](CCCCN)NC(=O)[C@@H](CCCNC(=N)N)NC(=O)CNC(=O)[C@H](N)Cc1ccc(O)cc1)C(=O)N[C@@H](CCC(=O)O)C(=O)N[C@@H](CO)C(=O)N[C@@H](CC(=O)O)C(=O)N[C@H](C(=O)O)C(C)C [NA-1]
- Fold higher amount of NA-1 in duodenum, intravenous vs nasal administration [1]: 4.5 fold
- Fold higher amount of NA-1 in kidneys, intravenous vs nasal administration [1]: 9.5 fold
- Fold higher amount of NA-1 in lungs, intravenous vs nasal administration [1]: 2.8 fold
- Fold higher amount of NA-1 in spleen, intravenous vs nasal administration [1]: 1.6 fold
- tissue uptake at 1 h [2]: 1.57 %ID/g
- Rank order of off-target tissue distribution ([3]; 3 nmol/g, 1 h, not affected by co-administration with the cell-penetrating peptides): kidney > liver > spleen > duodenum > lung > heart
- NA-1 accumulation in the olfactory bulb, co-administered with LowPro ([3]; NA-1:LowPro 1:1 molar ratio, 3 nmol/g, 1 h, ICP-MS, mean (N = 4-6)): 2.98 % administered dose/g
- NA-1 accumulation in the olfactory bulb, co-administered with PenShuf ([3]; NA-1:PenShuf 1:1 molar ratio, 3 nmol/g, 1 h, ICP-MS, mean (N = 4-6)): 1.63 % administered dose/g
- NA-1 accumulation in the olfactory bulb, co-administered with Tat ([3]; NA-1:Tat 1:1 molar ratio, 3 nmol/g, 1 h, ICP-MS, mean (N = 4-6)): 2.13 % administered dose/g
- NA-1 accumulation in the olfactory bulb [3, 10]: 1.38 % administered dose/g
- NA-1 accumulation in the remaining brain [3, 10]: 0.54 % administered dose/g
- Combined amount of NA-1 reaching the olfactory bulb and the brain ([3]; NA-1 alone, 1 h, p = 0.15 vs intravenous control): 1.92 % of administered dose/g
- apparent permeability (Papp) of NA-1 co-administered with Tat (× 10^− 6 cm/sec): 0.09
- apparent permeability (Papp) of NA-1 co-administered with PenShuf (× 10^− 6 cm/sec) [4]: 0.8
- Effect of co-administration with PenShuf on barrier permeation of NA-1 at the 16 h time-point ([5]; 50 µM NA-1 + 50 µM PenShuf vs NA-1 alone, 16 h, ICP-MS, N = 6, p < 0.0001 one-way ANOVA): significantly improved
- Fold better permeation potential of NA-1 compared to 4 KDa FITC-dextran ([5]; ratio of Papp values across primary porcine olfactory monolayers): 3.2 fold
- apparent permeability (Papp) of NA-1 co-administered with LowPro (× 10^− 6 cm/sec) [6]: 0.22

Molecule: N=C(N)NCCC[C@H](NC(=O)[C@H](CCCNC(=N)N)NC(=O)[C@H](CCCNC(=N)N)NC(=O)[C@H](CCC(N)=O)NC(=O)[C@H](CCCNC(=N)N)NC(=O)[C@H](CCCNC(=N)N)NC(=O)[C@H](CCCCN)NC(=O)[C@H](CCCCN)NC(=O)[C@H](CCCNC(=N)N)NC(=O)CNC(=O)[C@@H](N)Cc1ccc(O)cc1)C(=O)O [Tat]
- Cellular metabolic activity relative to cell culture media controls [7]: slight decrease

Molecule: O=C([O-])c1ccccc1-c1c2ccc(=O)cc-2oc2cc([O-])ccc12.[Na+].[Na+] [sodium fluorescein]
- Fraction of applied compound permeated the barrier upon 24 h of incubation [8]: 29.3%

Molecule: RWFKIQMQIRRWKNKK [PenShuf]
- Barrier integrity (TEER before vs after incubation), highest applied concentration [9]: negatively affect the barrier integrity
